Assay: Tensile load required to break hair fibers (break load)
Procedure: A commercial rinse-off conditioner formulation was used as a control vehicle for the study. An active formulation was prepared by adding 1% (w/w) of TDPA to the control vehicle. Three samples of treated hair were prepared: untreated, treatment with the control vehicle, and treatment with the control vehicle plus 1% TDPA. The treatments were applied to hair tresses that had been previously damaged by artificially color with an oxidative dye. The treatments were repeated five times. The overall condition of the hair fibers was determined by measuring the tensile load required to break the fibers and the results of 30 fibers were averaged. […] In stark contrast, the active formula, having 1% TDPA, gave a break load of about 82 gm. This correlates to an improvement in the tensile strength of about 20%. The formulas used in the testing protocol were as follows: […]

Compound: O=C(O)CCSCCC(=O)O [TDPA, 3,3′-thiodipropionic acid]
- improvement in the tensile strength (active formula with 1% TDPA (about 82 gm), untreated hair about 68 gm, control vehicle about 73 gm): about 20%
- break load (tensile load required to break the fibers) (active formula: commercial rinse-off conditioner control vehicle plus 1% (w/w) TDPA, treatments repeated five times, results of 30 fibers averaged, FIG. 1): about 82 gm
